Measured values published in ChEMBL document CHEMBL3046541, “Design and synthesis of 2-chloroquinoline derivatives as non-azoles antimycotic agents” (2011).

Tests used:
Type in all cases: functional
Aspergillus niger [1] = test: Antifungal activity against Aspergillus niger MTCC 281 at 200 ug/ml after 72 hr by cup-plate method; conditions: MTCC 281, 72 h, read-out: IZ
Monascus purpureus [2] = test: Antifungal activity against Monascus purpureus MTCC 369 at 200 ug/ml after 72 hr by cup-plate method; conditions: MTCC 369, 72 h, read-out: IZ
Aspergillus flavus [3] = test: Antifungal activity against Aspergillus flavus MTCC 277 at 200 ug/ml after 72 hr by cup-plate method; conditions: MTCC 277, 72 h, read-out: IZ
Penicillium citrinum [4] = test: Antifungal activity against Penicillium citrinum NCIM 768 at 200 ug/ml after 72 hr by cup-plate method; conditions: NCIM 768, 72 h, read-out: IZ
Penicillium citrinum [5] = test: Antifungal activity against Penicillium citrinum NCIM 768 at 100 ug/ml after 72 hr by cup-plate method; conditions: NCIM 768, 72 h, read-out: IZ
Aspergillus niger [6] = test: Antifungal activity against Aspergillus niger MTCC 281 at 100 ug/ml after 72 hr by cup-plate method; conditions: MTCC 281, 72 h, read-out: IZ
Aspergillus flavus [7] = test: Antifungal activity against Aspergillus flavus MTCC 277 at 100 ug/ml after 72 hr by cup-plate method; conditions: MTCC 277, 72 h, read-out: IZ
Monascus purpureus [8] = test: Antifungal activity against Monascus purpureus MTCC 369 at 100 ug/ml after 72 hr by cup-plate method; conditions: MTCC 369, 72 h, read-out: IZ

Compound	zone of inhibition at 200 µg/mL (Aspergillus niger [1]) [mm]	zone of inhibition at 200 µg/mL (Monascus purpureus [2]) [mm]	zone of inhibition at 200 µg/mL (Aspergillus flavus [3]) [mm]	zone of inhibition at 200 µg/mL (Penicillium citrinum [4]) [mm]	zone of inhibition at 100 µg/mL (Penicillium citrinum [5]) [mm]	zone of inhibition at 100 µg/mL (Aspergillus niger [6]) [mm]	zone of inhibition at 100 µg/mL (Aspergillus flavus [7]) [mm]	zone of inhibition at 100 µg/mL (Monascus purpureus [8]) [mm]
Clc1nc2ccccc2cc1CNc1ccccc1	12	7.7	12.4	8.06	–	–	–	–
Clc1ccc(NCc2cc3ccccc3nc2Cl)cc1	15.9	9.73	16	10.3	–	–	–	–
Cc1ccc(NCc2cc3ccccc3nc2Cl)cc1	10.9	7.63	12.8	8.06	–	–	–	–
Clc1nc2ccccc2cc1CNc1ccc(Br)cc1	13.7	8	10.5	9.86	–	–	–	–
Clc1cccc(NCc2cc3ccccc3nc2Cl)c1	13.4	9.63	11.6	8.03	–	–	–	–
COc1ccc(NCc2cc3ccccc3nc2Cl)cc1	10.8	7.66	13	7.63	–	–	–	–
Fc1ccc(NCc2cc3ccccc3nc2Cl)cc1	14.8	9.8	15	8.53	–	–	–	–
O=[N+]([O-])c1ccc(NCc2cc3ccccc3nc2Cl)cc1	8.06	7.7	8.33	6.13	–	–	–	–
Cc1cccc(NCc2cc3ccccc3nc2Cl)c1	9.53	7.6	10.1	5.73	–	–	–	–
Cc1ccccc1NCc1cc2ccccc2nc1Cl	8.66	6.4	7.03	7.03	–	–	–	–
Fc1ccc(NCc2cc3ccccc3nc2Cl)cc1Cl	17.8	11.5	19.7	9.73	–	–	–	–
Clc1ccccc1NCc1cc2ccccc2nc1Cl	13.9	7.33	10.6	7.06	–	–	–	–
Clc1ccc(NCc2cc3ccccc3nc2Cl)cc1Cl	19.6	9.7	18.7	8.76	–	–	–	–
Clc1nc2ccccc2cc1CNC1CCCCC1	6.27	–	–	–	–	–	–	–
CCCCNCc1cc2ccccc2nc1Cl	9.47	–	8.25	–	–	–	–	–
Clc1nc2ccccc2cc1CNCc1ccccc1	15.7	8.4	14.5	9.06	–	–	–	–
CN(Cc1cc2ccccc2nc1Cl)c1ccccc1	13.2	8.09	14.2	9.74	–	–	–	–
CN(Cc1cc2ccccc2nc1Cl)c1ccc(Cl)cc1	17.1	10.5	17.7	9.85	–	–	–	–
CN(Cc1cc2ccccc2nc1Cl)c1cccc(Cl)c1	15.2	9.63	12.1	11.1	–	–	–	–
CN(Cc1cc2ccccc2nc1Cl)c1ccc(F)cc1	15.9	11.5	17.1	9.77	–	–	–	–
CN(Cc1cc2ccccc2nc1Cl)c1ccc(F)c(Cl)c1	19.4	13.1	20.8	10.4	–	–	–	–
CN(Cc1cc2ccccc2nc1Cl)c1ccc(Cl)c(Cl)c1	21.1	10.4	19.5	11.1	–	–	–	–
CN(C/C=C/C#CC(C)(C)C)Cc1cccc2ccccc12 [TERBINAFINE]	–	–	–	–	21.8	24.7	25.1	26.2
